In assay [1] the test system is Candida albicans. Put plainly: Inhibition zone test of oil compositions on Candida albicans (Example 1). It counts as cell-based. More on the design: unit not given here. As for the experimental part:
Different two-oil and three-oil compositions with varying ratios were prepared in order to check the performance of the oils for inhibition of Candida albicans. Fluconazole and saline were used as positive and negative controls, respectively.

Assay [2] concerns Candida albicans. Put plainly: Antifungal activity (zone of inhibition) of microcapsules and bacterial cellulose loaded microcapsules. It counts as cell-based. The text has this:
The anti-fungal activity of the microcapsules and cellulosic matrices were checked for inhibition of Candida albicans. The studies are depicted in FIG. 15, FIG. 16, FIG. 17 and FIG. 18.

This is an account of results in patent US20220040115A1, “PHARMACEUTICAL COMPOSITIONS AND DELIVERY SYSTEMS FOR PREVENTION AND TREATMENT OF CANDIDIASIS” (INDIAN INSTITUTE OF TECHNOLOGY HYDERABAD, priority 2018, published 2022).

With `Cc1ccc(C(C)C)cc1O` [Carvacrol, 5-Isopropyl-2-methylphenol], the Inhibition zone diameter in the assay with Candida albicans [1] (volume 50 μL, 24 hrs) was found to be 3.2; with Candida albicans [1] (volume 100 μL, 24 hrs), 3.8; in the assay on Candida albicans [1] (volume 150 μL, 24 hrs), 4.5; with Candida albicans [1] (volume 200 μL, 24 hrs) it was 5.1.

For the molecule `C=CCc1ccc(O)c(OC)c1` [Eugenol, 2-Methoxy-4-(prop-2-en-1-yl) phenol], the Inhibition zone diameter came to 2.0 with Candida albicans [1] (volume 50 μL, 24 hrs); 3.5 in the assay with Candida albicans [1] (volume 100 μL, 24 hrs); 4.1 in the assay with Candida albicans [1] (volume 150 μL, 24 hrs); 4.3 in the assay on Candida albicans [1] (volume 200 μL, 24 hrs).

As for `OC(Cn1cncn1)(Cn1cncn1)c1ccc(F)cc1F` [Fluconazole], the Zone of inhibition with Candida albicans [2] (24 hrs) worked out at 3.5 ± 0.1; with Candida albicans [2] (48 hrs), 1.8 ± 0.1; in the assay with Candida albicans [2] (72 hrs), 1.5 ± 0.1. In addition, the Inhibition zone diameter in the assay with Candida albicans [1] (200 μg, time period 24 hrs) came out at 5.3; with Candida albicans [1] (200 μg, time period 48 hrs) it was 4.5; in the assay on Candida albicans [1] (200 μg, time period 72 hrs), 3.4.

As for `Cc1ccc(C(C)C)c(O)c1` [Thymol, 2-isopropyl-5-methylphenol], the Inhibition zone diameter in the assay on Candida albicans [1] (volume 50 μL, 24 hrs) is 2.5; with Candida albicans [1] (volume 100 μL, 24 hrs), 3.1; in the assay on Candida albicans [1] (volume 150 μL, 24 hrs) it was 3.9; in the assay on Candida albicans [1] (volume 200 μL, 24 hrs) it was 4.2.
